# In patent publication US4094908A, “Alpha-substituted benzhydrol derivatives” (Richter Gedeon Vegyeszeti Gyar Rt., priority 1973, dated 1978):
# Assays:
# [1] = tested on: hexobarbital oxidase; test: Enzyme-inducing potency: in vivo hexobarbital oxidase activity (duration of hexobarbital narcosis); design: species or system Female Wistar rats; settings: 24 hours before hexobarbital
# Method: […] 24 and 48 hours after the administration of the active agent, respectively, the animals were narcotized with 40 mg./kg. i.v. dosage of hexobarbital sodium, and the time elapsed until complete wakening was measured (Noordhock, J.: Eur. J. Pharmacol. 3, 242, 1968). The data were recorded, and the mean values, the standard errors, as well as the percentage increase with respect to the controls were calculated for each group. […] The hexobarbital concentration of the plasma, measured on the instant of wakening, was the same for both the treated and the control animals, thus the increase of narcosis period was not due to a certain central nervous interaction (Jori, A., Bianchatti, A., Presentini, P. E.: Biochem. Pharmacol. 19, 2687, 1970).
# The enzyme-inducing potency of the new compounds was determined by several methods. One of these methods was the in vivo measurement of hexobarbital oxidase activity.
# The decrease of narcosis period is due to the fact that the new compounds according to the invention accelerate the elimination of hexobarbital, a foreign substance, from the body. When administering the compound to be tested in a single dosage and measuring the duration of hexobarbital narcosis 24 hours after the administration, the following results are obtained: […]
# [2] = tested on: bilirubin elimination; test: Bilirubin elimination under in vivo conditions; design: species or system rats; settings: pre-treated rats; 30 mg./kg. free bilirubin i.v.
# Method: When examining the bilirubin elimination under in vivo conditions on rats pre-treated with E 15 or phenobarbital, respectively, and challenged intravenously with a dosage of 30 mg./kg. of free bilirubin, the following biological halving periods were determined (Krueger, H., Higginson, J.: Proc. Soc. Exp. Biol. Med. 107, 43, 1961): […]
# [3] = Toxicity: perished animals/tested animals; format: in vivo
# Source text: Despite its disadvantageous properties, phenobarbital is widely used in the treatment of neonatal jaundice. In order to enable a better comparison, Table 8 indicates the respective dosages in which phenobarbital causes lethal respiration paralysis, while the compounds according to the invention are completely innocuous.
# [4] = tested on: central nervous system; format: in vivo, mice and rats
# Source text: The central nervous activities of the compounds according to the invention were examined on mice and rats with the following methods: electroshock (Swinyard, E. A., Brown, W. C., Goodman, L. S.: J. Pharmacol. Exp. Ther. 106, 319, 1952), metrazol spasm (Everett, G. M., Richards, R. K.: J. Pharmacol. Exp. Ther. 81, 402: 1944), thiosemicarbezide spasm (Da Venzo, J. P. Greig, M. E., Cormin, M. A.: Amer. J. Physiol. 201, 833: 1961), strychnine spasm (Kerley, T. L., Richards, A. G., Begley, R. W., Abreu, B. B. Wesver, L. C.: J. Pharmacol. Exp. Ther. 132, 360: 1961), nicotine spasm (Stone, C. A., Mecklenburg, K. L., Torhans, M. L.: Arch. Int. Pharmacodyn. 117, 419: 1958), rotarod test (Kinnard, W. C., Carr, C. J.: J. Pharmacol. Expt. Ther. 121, 3, 54: 1957), physistigmine lethality preventing effect (Nose, T., Kojima, M.: Europ. J. Pharmacol. 10, 83: 1970), yohimbine potentiation effect (Quinton, R. M.: Brit. J. Pharmacol. 21, 51: 1963), and analgesic activity (Bianchi, G., Franceschini, J.: Brit. J. Pharm. Chemother. 9, 280: 1954). As reference substance, phenobarbital was used. […]
# [5] = neonatal jaundice; in words; cited from earlier work
smiles,measurement,setting,value
"CCC1(c2ccccc2)C(=O)NC(=O)NC1=O [Phenobarbital, reference compound]",Sleeping period ± standard error,[1]; 5 mg./kg. single dosage,20.1 ± 2.0
same,Sleeping period ± standard error,[1]; 10 mg./kg. single dosage,14.3 ± 1.4
same,Sleeping period ± standard error,[1]; 20 mg./kg. single dosage,14.0 ± 1.3
same,Sleeping period ± standard error,[1]; 40 mg./kg. single dosage,12.5 ± 1.2
same,t1/2 (biological halving period of bilirubin),[2],13 min
same,Perished animals/tested animals,[3]; 40 mg./kg,0/10
same,Perished animals/tested animals,[3]; 80 mg./kg,0/10
same,Perished animals/tested animals,[3]; 160 mg./kg,4/10
same,Perished animals/tested animals,[3]; 320 mg./kg,9/10
same,Perished animals/tested animals,[3]; 640 mg./kg,10/10
same,Central nervous effects,"[4]; in words, in contrast with phenobarbital",hypnotic and respiration paralyzing effects
same,Central nervous activity,"[4]; oral 40, 120 and 150 mg./kg., phenobarbital effect even at 40 mg./kg.",strong anticonvulsive muscle-incoordinating and sedative effects
same,Side effects,[5],toxic (sedative and respiration-paralyzing) side effects
